In the supplement of paper PMC7214452:

Columns and labels:
Experiment in all cases: normalized area under the dose-response curve (viability relative to DMSO control) (fraction); higher = less sensitive (more viable cells)
Conditions in all cases: exposure time not given
Se-Ax (cancer type: TCL) = system: Se-Ax (cancer type: TCL)
Method: (§1)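 25 myeloma and 15 non-Hodgkin lymphoma cell lines were exposed to each of 76 drugs as 7-point log dilutions (0.01 nM–10 µM) in duplicate. Viability was read with CellTiter-Glo and normalised to DMSO (0.1%) and staurosporine (10 µM) plate controls. Normalised AUC was calculated by the trapezoidal method relative to the negative control.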

[1] = system: OCI-LY19 (cancer type: DLBCL)
Method: as §1

[2] = system: KMS28PE (cancer type: MM)
Method: as §1

L363 (cancer type: MM) = system: L363 (cancer type: MM)
Method: as §1

OPM2 (cancer type: MM) = system: OPM2 (cancer type: MM)
Method: as §1

[3] = system: NCI-H929 (cancer type: MM)
Method: as §1

[4] = system: SU-DHL2 (cancer type: DLBCL)
Method: as §1

[5] = system: KMS28BM (cancer type: MM)
Method: as §1

[6] = system: Granta-519 (cancer type: Mantle)
Method: as §1

XG2 (cancer type: MM) = system: XG2 (cancer type: MM)
Method: as §1

[7] = system: OCI-MY5/CRBN (cancer type: MM)
Method: as §1

[8] = system: SU-DHL6 (cancer type: DLBCL)
Method: as §1

[9] = system: Mino (cancer type: Mantle)
Method: as §1

[10] = system: Karpas-299 (cancer type: TCL)
Method: as §1

KMS11 (cancer type: MM) = system: KMS11 (cancer type: MM)
Method: as §1

JJN3 (cancer type: MM) = system: JJN3 (cancer type: MM)
Method: as §1

[11] = system: OCI-LY3 (cancer type: DLBCL)
Method: as §1

KMS34 (cancer type: MM) = system: KMS34 (cancer type: MM)
Method: as §1

[12] = system: RPMI 8226 (cancer type: MM)
Method: as §1

[13] = system: OCI-MY5/Vec (cancer type: MM)
Method: as §1

KMS18 (cancer type: MM) = system: KMS18 (cancer type: MM)
Method: as §1

[14] = system: OCI-MY7 (cancer type: MM)
Method: as §1

[15] = system: JeKo-1 (cancer type: Mantle)
Method: as §1

[16] = system: OCI-MY5 (cancer type: MM)
Method: as §1

AMO1 (cancer type: MM) = system: AMO1 (cancer type: MM)
Method: as §1

MM1.S (cancer type: MM) = system: MM1.S (cancer type: MM)
Method: as §1

U266 (cancer type: MM) = system: U266 (cancer type: MM)
Method: as §1

EJM (cancer type: MM) = system: EJM (cancer type: MM)
Method: as §1

LP1 (cancer type: MM) = system: LP1 (cancer type: MM)
Method: as §1

FR4 (cancer type: MM) = system: FR4 (cancer type: MM)
Method: as §1

MM1.R (cancer type: MM) = system: MM1.R (cancer type: MM)
Method: as §1

[17] = system: SU-DHL1 (cancer type: TCL)
Method: as §1

[18] = system: JVM2 (cancer type: Mantle)
Method: as §1

[19] = system: OCI-LY1 (cancer type: DLBCL)
Method: as §1

My-La (cancer type: TCL) = system: My-La (cancer type: TCL)
Method: as §1

KMS26 (cancer type: MM) = system: KMS26 (cancer type: MM)
Method: as §1

[20] = system: KMS12PE (cancer type: MM)
Method: as §1

[21] = system: HuT 78 (cancer type: TCL)
Method: as §1

[22] = system: SR-786 (cancer type: TCL)
Method: as §1

SKMM2 (cancer type: MM) = system: SKMM2 (cancer type: MM)
Method: as §1

COc1cc(Nc2ncc3c(n2)-c2ccc(Cl)cc2C(c2c(F)cccc2OC)=NC3)ccc1C(=O)O [Alisertib]
normalized area under the dose-response curve (Se-Ax (cancer type: TCL)): 0.73
normalized area under the dose-response curve [1]: 0.853
normalized area under the dose-response curve [2]: 0.918
normalized area under the dose-response curve (L363 (cancer type: MM)): 0.872
normalized area under the dose-response curve (OPM2 (cancer type: MM)): 0.957
normalized area under the dose-response curve [3]: 0.94
normalized area under the dose-response curve [4]: 0.964
normalized area under the dose-response curve [5]: 0.913
normalized area under the dose-response curve [6]: 0.709
normalized area under the dose-response curve (XG2 (cancer type: MM)): 0.69
normalized area under the dose-response curve [7]: 0.85
normalized area under the dose-response curve [8]: 0.946
normalized area under the dose-response curve [9]: 0.622
normalized area under the dose-response curve [10]: 0.816
normalized area under the dose-response curve (KMS11 (cancer type: MM)): 0.772
normalized area under the dose-response curve (JJN3 (cancer type: MM)): 0.919
normalized area under the dose-response curve [11]: 0.878
normalized area under the dose-response curve (KMS34 (cancer type: MM)): 0.684
normalized area under the dose-response curve [12]: 0.927
normalized area under the dose-response curve [13]: 0.809
normalized area under the dose-response curve (KMS18 (cancer type: MM)): 0.833
normalized area under the dose-response curve [14]: 0.92
normalized area under the dose-response curve [15]: 0.716
normalized area under the dose-response curve [16]: 0.881
normalized area under the dose-response curve (AMO1 (cancer type: MM)): 0.7
normalized area under the dose-response curve (MM1.S (cancer type: MM)): 0.85
normalized area under the dose-response curve (U266 (cancer type: MM)): 0.859
normalized area under the dose-response curve (EJM (cancer type: MM)): 0.889
normalized area under the dose-response curve (LP1 (cancer type: MM)): 0.851
normalized area under the dose-response curve (FR4 (cancer type: MM)): 0.916
normalized area under the dose-response curve (MM1.R (cancer type: MM)): 0.85
normalized area under the dose-response curve [17]: 0.761
normalized area under the dose-response curve [18]: 0.706
normalized area under the dose-response curve [19]: 0.794
normalized area under the dose-response curve (My-La (cancer type: TCL)): 0.851
normalized area under the dose-response curve (KMS26 (cancer type: MM)): 0.887
normalized area under the dose-response curve [20]: 0.94
normalized area under the dose-response curve [21]: 0.826
normalized area under the dose-response curve [22]: 0.802
normalized area under the dose-response curve (SKMM2 (cancer type: MM)): 0.967
